This is an account of results in patent US20220184008A1, “MODULATORS OF INTRACELLULAR CHLORIDE CONCENTRATION” (FONDAZIONE ISTITUTO ITALIANO DI TECNOLOGIA, priority 2019, published 2022).

In the experiment the target is T1, NKCC1 (Homo sapiens, UniProt P55011).
T1 construct: expressed in transfected cells; host or cells: HEK293
T1 sequence (P55011 1-1212): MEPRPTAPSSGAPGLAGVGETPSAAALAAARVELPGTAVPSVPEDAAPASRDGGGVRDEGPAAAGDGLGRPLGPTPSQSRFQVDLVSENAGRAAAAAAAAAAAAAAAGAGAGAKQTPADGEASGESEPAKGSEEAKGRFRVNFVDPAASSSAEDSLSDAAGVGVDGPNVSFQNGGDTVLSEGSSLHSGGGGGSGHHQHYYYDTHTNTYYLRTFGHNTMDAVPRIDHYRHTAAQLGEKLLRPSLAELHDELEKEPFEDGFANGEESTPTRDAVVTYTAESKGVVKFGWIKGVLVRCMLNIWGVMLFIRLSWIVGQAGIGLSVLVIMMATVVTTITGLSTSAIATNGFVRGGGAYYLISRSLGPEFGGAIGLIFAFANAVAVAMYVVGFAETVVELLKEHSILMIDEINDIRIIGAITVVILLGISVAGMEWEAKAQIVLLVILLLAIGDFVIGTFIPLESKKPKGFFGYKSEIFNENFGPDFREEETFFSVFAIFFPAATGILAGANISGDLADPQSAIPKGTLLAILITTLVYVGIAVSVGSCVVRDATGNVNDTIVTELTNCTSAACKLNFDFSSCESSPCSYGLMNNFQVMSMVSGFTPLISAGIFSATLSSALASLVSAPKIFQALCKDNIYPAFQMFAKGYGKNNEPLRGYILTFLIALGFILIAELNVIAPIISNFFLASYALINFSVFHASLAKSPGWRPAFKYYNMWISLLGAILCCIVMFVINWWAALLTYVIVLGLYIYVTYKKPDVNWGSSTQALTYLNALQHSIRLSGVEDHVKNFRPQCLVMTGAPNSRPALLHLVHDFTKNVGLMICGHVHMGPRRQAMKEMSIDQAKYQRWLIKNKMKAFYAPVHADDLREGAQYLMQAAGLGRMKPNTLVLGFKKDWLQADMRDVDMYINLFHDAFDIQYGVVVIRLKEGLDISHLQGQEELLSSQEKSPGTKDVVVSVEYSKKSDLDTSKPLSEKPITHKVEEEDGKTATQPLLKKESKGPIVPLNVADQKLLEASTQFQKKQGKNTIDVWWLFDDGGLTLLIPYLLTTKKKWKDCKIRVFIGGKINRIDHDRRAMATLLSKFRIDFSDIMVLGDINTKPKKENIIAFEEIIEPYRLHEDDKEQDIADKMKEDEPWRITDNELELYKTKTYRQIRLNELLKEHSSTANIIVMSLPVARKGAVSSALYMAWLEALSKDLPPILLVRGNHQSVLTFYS
As to the kind of experiment: Chloride kinetic assay (Cl-sensitive YFP) in NKCC1-transfected HEK293 cells. Type of experiment: cell-based. The method, then:
FIG. 1: In vitro testing of the NKCC1 inhibitors in the chloride kinetic assay a) Example traces obtained in the chloride kinetic assay on HEK cells transfected with the YFP (mock) or with YFP and NKCC1. The arrow indicates the addition of NaCl (final concentration 74 mM) used to initiate the flux assay. b) Quantification of the effect of bumetanide (10 μM and 100 μM) or furosemide (10 μM and 100 μM) in the chloride kinetic assay on mock or NKCC1-transfected HEK293 cells. Data represents mean±sem from 5 independent experiments. c) Quantification of the effect of bumetanide and furosemide and 2 selected compounds (3.8, 3.17) in the chloride kinetic assay on NKCC1-transfected HEK293 cells. Data represents mean±sem from 5 independent experiments, and they are represented as % of the controls. *P<0.05, **P<0.01, ***P<0.001 Kruskal-Wallis Anova (Dunn's Post hoc Test); ###P<0.001 two-tailed unpaired Student t-test.
To screen in vitro the compounds efficiency in blocking NKCC1, a functional NKCC1 transporter assay was performed by measuring variation of Cl^− ion concentration in the cell through a Cl^− sensitive membrane-tagged yellow fluorescent protein (mbYFPQS, Addgene). mbYFPQS fluorescence is inversely dependent on the concentration of Cl^− inside the cell thus allowing an indirect estimation of the Cl^− transporter activity. In particular, HEK293 cells were transfected with NKCC1 or mock construct (control) together with the Cl^− sensitive YFP. After 2 DIV, the cells were treated with bumetanide and furosemide (as positive controls) or with each of the tested compounds of the invention in a Cl^− free medium. After 30 min, the inhibitory activity of the compounds was tested by monitoring fluorescence upon application of NaCl (FIG. 1a). Transported by NKCC1, Cl binds the YFP, leading to a fluorescence decrease. […] With the Cl kinetic assay, the NKCC1 inhibitory activity of the selected compounds was tested (FIG. 1c).

In the case of `CN(C)S(=O)(=O)c1cc(C(=O)O)ccc1NCCCCCCCC(F)(F)F` [Compound 3.17, 3-(dimethylsulfamoyl)-4-(8,8,8-trifluorooctylamino) benzoic acid], the inhibition at 10 µM (10 μM, NKCC1-transfected HEK293, Table 1, read-out: NKCC1 Inhibition % 10 μM HEK Chloride YFP assay) is 37%. Moreover, under “100 μM”, the “NKCC1 inhibition compared with bumetanide and furosemide” value was “better than bumetanide and furosemide”.

Consider Furosemide [reference compound], for which the “NKCC1 Inhibition % 10 μM HEK Chloride YFP assay” value runs as follows: (10 μM, NKCC1-transfected HEK293, Table 1) “Inactive”; (10 μM, NKCC1-transfected HEK293, Table 2) “Inactive”. Under “pre-incubation at 10 μM and 100 μM”, the “effect on decrease in fluorescence upon NaCl application in NKCC1-transfected cells” value is given as “effective at 100 μM only”.

Usually inhibition stands for the percentage by which the read-out fell short of the control.
